The source of these data is ChEMBL document CHEMBL4196035, “Discovery and optimization of ATX inhibitors via modeling, synthesis and biological evaluation” (Eur J Med Chem, 2018).

The IC50 is the concentration at which inhibition is half-maximal. A word on the AUC: it is concentration integrated over time. Higher therefore signals high exposure. The Tmax is the time from dosing to the highest level. Broadly, the clearance is the rate of elimination divided by the concentration. For orientation: Cmax means the highest concentration seen after dosing.

Data set [1] concerns the target T1, Autotaxin (Homo sapiens, UniProt Q13822). As to the kind of experiment: Inhibition of human ENPP2 using bis-pNPP as substrate measured every 10 secs for 10 mins by spectrophotometric assay.
Data set [2] has as its target T1, Autotaxin. As to the kind of experiment: Inhibition of human ENPP2 using FS3 as substrate measured every 5 mins for 30 mins by fluorescence assay.
Data set [3] in a line: AUC in Sprague-Dawley rat at 2 mg/kg, iv administered as single bolus dose by HPLC-MS/MS analysis. The class given is ADME, organism-based. The note with it: in vivo.
Data set [4] in a line: Tmax in Sprague-Dawley rat at 10 mg/kg, iv administered as single bolus dose by HPLC-MS/MS analysis. The class given is ADME, organism-based. The note with it: in vivo.
A short description of data set [5]: Clearance in Sprague-Dawley rat at 20 mg/kg, iv administered as single bolus dose by HPLC-MS/MS analysis. The class given is ADME, organism-based. The note with it: in vivo.
Data set [6] is described as follows: Clearance in Sprague-Dawley rat at 10 mg/kg, iv administered as single bolus dose by HPLC-MS/MS analysis. The format is ADME, organism-based. The note with it: in vivo.
A short description of data set [7]: Terminal half life in Sprague-Dawley rat at 20 mg/kg, iv administered as single bolus dose by HPLC-MS/MS analysis. The class given is ADME, organism-based. The note with it: in vivo, read-out: beta t1/2 (converted).
Data set [8] deals with T1, Autotaxin. The data set is described as follows: Inhibition of ENPP2 in human A2058 cells using LPC as substrate preincubated for 15 mins followed by substrate addition measured after 3 hrs by LC-MS/MS analysis. The class given is cell-based.
Data set [9] is described as follows: AUC in Sprague-Dawley rat at 10 mg/kg, iv administered as single bolus dose by HPLC-MS/MS analysis. The format is ADME, organism-based. The note with it: in vivo.
Data set [10] is described as follows: Volume of distribution at steady state in Sprague-Dawley rat at 20 mg/kg, iv administered as single bolus dose by HPLC-MS/MS analysis. The class given is ADME, organism-based. The note with it: in vivo, read-out: Vdss.
Data set [11] in a line: Terminal half life in Sprague-Dawley rat at 2 mg/kg, iv administered as single bolus dose by HPLC-MS/MS analysis. The class given is ADME, organism-based. The note with it: in vivo, read-out: beta t1/2 (converted).
For data set [12], the target named is T1, Autotaxin. As to the kind of experiment: Inhibition of ENPP2 in human SKHEP1 cells using LPC as substrate preincubated for 15 mins followed by substrate addition measured after 3 hrs by LC-MS/MS analysis. The format is cell-based.
Data set [13] is described as follows: Terminal half life in Sprague-Dawley rat at 10 mg/kg, iv administered as single bolus dose by HPLC-MS/MS analysis. The class given is ADME, organism-based. The note with it: in vivo, read-out: beta t1/2 (converted).
The nature of data set [14]: Volume of distribution at steady state in Sprague-Dawley rat at 2 mg/kg, iv administered as single bolus dose by HPLC-MS/MS analysis. The note with it: in vivo, read-out: Vdss. The format is ADME, organism-based.
Data set [15] in a line: Cmax in Sprague-Dawley rat at 10 mg/kg, iv administered as single bolus dose by HPLC-MS/MS analysis. The format is ADME, organism-based. The arrangement: dose 10 mg/kg, route intravenous. The note with it: in vivo.
A short description of data set [16]: Tmax in Sprague-Dawley rat at 2 mg/kg, iv administered as single bolus dose by HPLC-MS/MS analysis. The format is ADME, organism-based. The note with it: in vivo.
Data set [17] concerns Rattus norvegicus. As to the kind of experiment: Dose normalized Cmax in Sprague-Dawley rat at 2 mg/kg, iv administered as single bolus dose by HPLC-MS/MS analysis. The class given is ADME, organism-based. The note with it: in vivo.
Data set [18] can be described thus: Metabolic stability in Sprague-Dawley rat liver microsomes assessed as parent compound remaining at 5 uM preincubated for 10 mins followed by NADPH addition measured after 60 mins by LC-MS/MS analysis. The note with it: read-out: Stability. The class given is ADME, microsome. In general terms: Microsomes from liver hold many membrane-bound enzymes, among them those of drug oxidation.

The test system of data set [19] is Rattus norvegicus. The data set is described as follows: Dose normalized AUC in Sprague-Dawley rat at 2 mg/kg, iv administered as single bolus dose by HPLC-MS/MS analysis. The format is ADME, organism-based. The note with it: in vivo.
A short description of data set [20]: Half life in human liver microsomes at 5 uM preincubated for 10 mins followed by NADPH addition measured up to 60 mins by LC-MS/MS analysis. The format is ADME, microsome.
A short description of data set [21]: Cmax in Sprague-Dawley rat at 2 mg/kg, iv administered as single bolus dose by HPLC-MS/MS analysis. The class given is ADME, organism-based. The arrangement: dose 2 mg/kg, route intravenous. The note with it: in vivo.
Data set [22] can be described thus: Tmax in Sprague-Dawley rat at 20 mg/kg, iv administered as single bolus dose by HPLC-MS/MS analysis. The format is ADME, organism-based. The note with it: in vivo.
Data set [23] in a line: Volume of distribution at steady state in Sprague-Dawley rat at 10 mg/kg, iv administered as single bolus dose by HPLC-MS/MS analysis. The note with it: in vivo, read-out: Vdss. The format is ADME, organism-based.
Data set [24] has as its system Rattus norvegicus. As to the kind of experiment: Dose normalized Cmax in Sprague-Dawley rat at 10 mg/kg, iv administered as single bolus dose by HPLC-MS/MS analysis. The class given is ADME, organism-based. The note with it: in vivo.
The nature of data set [25]: Half life in Sprague-Dawley rat liver microsomes at 5 uM preincubated for 10 mins followed by NADPH addition measured up to 60 mins by LC-MS/MS analysis. The format is ADME, microsome.
The nature of data set [26]: Metabolic stability in human liver microsomes assessed as parent compound remaining at 5 uM preincubated for 10 mins followed by NADPH addition measured after 60 mins by LC-MS/MS analysis. The format is ADME, microsome. The note with it: read-out: Stability.
A short description of data set [27]: Cmax in Sprague-Dawley rat at 20 mg/kg, iv administered as single bolus dose by HPLC-MS/MS analysis. The arrangement: dose 20 mg/kg, route intravenous. The note with it: in vivo. The format is ADME, organism-based.
Data set [28] in a line: Clearance in Sprague-Dawley rat at 2 mg/kg, iv administered as single bolus dose by HPLC-MS/MS analysis. The format is ADME, organism-based. The note with it: in vivo.
For data set [29], the system named is Rattus norvegicus. As to the kind of experiment: Dose normalized AUC in Sprague-Dawley rat at 20 mg/kg, iv administered as single bolus dose by HPLC-MS/MS analysis. The class given is ADME, organism-based. The note with it: in vivo.
Data set [30] has as its target T1, Autotaxin. The data set is described as follows: Inhibition of ENPP2 in human plasma using LPC as substrate preincubated for 15 mins followed by substrate addition measured after 3 hrs by LC-MS/MS analysis.
Data set [31] relates to Rattus norvegicus. As to the kind of experiment: Dose normalized AUC in Sprague-Dawley rat at 10 mg/kg, iv administered as single bolus dose by HPLC-MS/MS analysis. The class given is ADME, organism-based. The note with it: in vivo.
The test system of data set [32] is Rattus norvegicus. The data set is described as follows: Dose normalized Cmax in Sprague-Dawley rat at 20 mg/kg, iv administered as single bolus dose by HPLC-MS/MS analysis. The format is ADME, organism-based. The note with it: in vivo.
Data set [33] can be described thus: AUC in Sprague-Dawley rat at 20 mg/kg, iv administered as single bolus dose by HPLC-MS/MS analysis. The format is ADME, organism-based. The note with it: in vivo.

With `O=C(Nc1ccc(CP(=O)(O)O)cc1)C1CCN(C(=O)OCc2ccc(OC(F)(F)F)cc2)CC1`, the IC50 in data set [1] stood at 3.12 nM; in data set [2], 1.97 nM.
As to `NS(=O)(=O)Nc1ccc(NC(=O)C2CCN(C(=O)OCc3cc(Cl)cc(Cl)c3)CC2)cc1`, the concentration for half-maximal inhibition (IC50) was 250 nM in data set [1] and 8.9 nM in data set [2].
As for `O=C(O)Cc1ccc(NC(=O)C2CCN(C(=O)OCc3cc(Cl)cc(Cl)c3)CC2)cc1`, the IC50 in [1] is 439 nM; in data set [2], 8.44 nM.
The like results for `O=C(NC1CCN(C(=O)OCc2cc(Cl)cc(Cl)c2)CC1)c1ccc(CP(=O)(O)O)cc1` were, in that order, 5.22 nM and 1.36 nM.
Turning to `O=C(Nc1ccc(CP(=O)(O)O)cc1)C1CCN(C(=O)OCc2ccccc2F)CC1`, the concentration for half-maximal inhibition (IC50) in [1] stood at 453 nM; in data set [2], 7.13 nM.
The like results for `NS(=O)(=O)Cc1ccc(NC(=O)C2CCN(C(=O)OCc3cc(Cl)cc(Cl)c3)CC2)cc1` were, in that order, 73.5 nM and 4.62 nM.
The like results for `O=C(Nc1ccc(CP(=O)(O)O)cc1)C1CCN(C(=O)OCc2ccccc2)CC1` were, in that order, 255 nM and 7.17 nM.
The like results for `O=C(Nc1ccc(CP(=O)(O)O)cc1)C1CCN(C(=O)OCc2cccc(Cl)c2)CC1` were, in that order, 39.6 nM and 1.79 nM.
As for `O=C(Nc1nc(CP(=O)(O)O)cs1)C1CCN(C(=O)OCc2cc(Cl)cc(Cl)c2)CC1`, the IC50 in data set [1] worked out at 26.5 nM; in data set [2] it was 1.75 nM.
For `O=C(Nc1ccc(CP(=O)(O)O)cc1)C1CCN(C(=O)OCc2ccc(OC(F)(F)F)cc2F)CC1`, in that order: 2.78 nM and 1.67 nM.
Regarding `O=C(NO)c1ccc(NC(=O)C2CCN(C(=O)OCc3cc(Cl)cc(Cl)c3)CC2)cc1`, the half-inhibitory concentration (IC50) amounted to 496 nM in data set [1] and 18.7 nM in [2].
For `O=C(Nc1ccc(CP(=O)(O)O)cc1)C1CCN(C(=O)OCc2ccccc2Cl)CC1`, in that order: 213 nM and 3.29 nM.
For `O=C(NC1CCN(C(=O)OCc2cc(Cl)cc(Cl)c2)C1)c1nc(CP(=O)(O)O)cs1` (centres undefined), in that order: 54.7 nM and 3.71 nM.
In the case of `O=C(Nc1ccc(CP(=O)(O)O)cc1)C1CCN(C(=O)OCc2cc(Cl)cc(Cl)c2)CC1`, the AUC in data set [3] amounted to 3050 ng·h/mL; in [9], 12700 ng·h/mL; in data set [33] it was 27000 ng·h/mL. Also, the time of peak concentration (Tmax) in data set [4], in data set [16] and in data set [22] was 1.2 min each time. The results for the clearance in data set [5], in data set [6] and in data set [28] were 12.2 mL/min/kg, 13.3 mL/min/kg and 11.3 mL/min/kg, respectively. Further, the half-life in data set [7] was 245 min; in data set [11], 17.4 min; in data set [13], 42.6 min. The 50% inhibitory concentration (IC50) in data set [8] amounted to 1.3 nM; in [1], 2.18 nM; in data set [12], 7.9 nM; in [30] it was 136 nM; in data set [2] it was 1.23 nM. Moreover, the Vd in data set [10] stood at 2.24 L/kg; in [14] it was 0.15 L/kg; in data set [23], 0.33 L/kg. The maximum concentration (Cmax) came out at 117 µg/mL in data set [15], 33.1 µg/mL in [21] and 200 µg/mL in [27]. In addition, the values for the Cmax/dose in data set [17], in data set [24] and in data set [32] were 16.6 kg/L, 11.7 kg/L and 9.98 kg/L, respectively. Also, the remaining at 1 h, 5 µM in data set [18] and in data set [26] was more than 99.9% each time. For the same compound, the AUC/dose in data set [19] was found to be 1.53 kg·h/L; in [29], 1.35 kg·h/L; in data set [31] it was 1.27 kg·h/L. Also, the half-life at 5 µM in data set [20] and in data set [25] was more than 60 min each time.
